In one assay the target is T1, Drosophila OR98a (Drosophila melanogaster, UniProt Q9VAZ3).
T1 construct: expressed in transfected cells
T1 sequence (Q9VAZ3 1-397): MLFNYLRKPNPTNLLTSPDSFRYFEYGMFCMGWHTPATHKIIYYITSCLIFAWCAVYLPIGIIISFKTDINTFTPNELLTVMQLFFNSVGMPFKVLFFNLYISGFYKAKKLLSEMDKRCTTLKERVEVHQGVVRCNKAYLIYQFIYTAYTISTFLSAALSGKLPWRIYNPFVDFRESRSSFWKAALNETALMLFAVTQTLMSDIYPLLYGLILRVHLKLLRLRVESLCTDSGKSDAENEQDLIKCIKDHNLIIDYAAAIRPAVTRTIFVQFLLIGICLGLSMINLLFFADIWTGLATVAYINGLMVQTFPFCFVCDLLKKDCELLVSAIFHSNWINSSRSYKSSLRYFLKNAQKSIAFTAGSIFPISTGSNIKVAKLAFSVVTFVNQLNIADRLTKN
T1 sequence (Q9VNB5 1-486 partner): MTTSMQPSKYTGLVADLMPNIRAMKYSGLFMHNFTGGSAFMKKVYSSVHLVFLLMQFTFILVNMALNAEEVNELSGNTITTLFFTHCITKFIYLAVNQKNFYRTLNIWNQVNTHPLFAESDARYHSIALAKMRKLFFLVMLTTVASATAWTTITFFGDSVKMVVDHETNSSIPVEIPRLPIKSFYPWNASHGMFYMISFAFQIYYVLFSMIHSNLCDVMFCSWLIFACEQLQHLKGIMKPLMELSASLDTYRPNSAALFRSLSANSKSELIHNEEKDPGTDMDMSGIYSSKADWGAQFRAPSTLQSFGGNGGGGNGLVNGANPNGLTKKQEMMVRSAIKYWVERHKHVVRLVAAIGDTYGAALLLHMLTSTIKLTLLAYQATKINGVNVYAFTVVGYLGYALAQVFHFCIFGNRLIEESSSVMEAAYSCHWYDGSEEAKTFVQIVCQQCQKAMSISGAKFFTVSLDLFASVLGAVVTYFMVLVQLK
Briefly: cell-based. Also on record: GCaMP6 calcium fluorescence in stable HEK293 OR+ORCO lines; peak dF normalised to 50 uM VUAA1 (=1). The conditions noted are these: HEK293; relative to 50 uM VUAA1 response; below 0.05 set to 0; read-out: % activation. On the procedure:
Twelve thousand to 18,000 cells were plated into each well of a black wall, transparent bottom 384-well microplate (Greiner) 48 h or 72 h before the measurements and were simultaneously treated with 1 μg/mL doxycycline. […] The plate has 24 columns, thus we could record responses in up to eight different cell lines in each plate. On the day of the experiment, the growth medium was replaced with 20 µL assay buffer/well (140 mM NaCl, 5 mM KCl, 2 mM CaCl2, 1 mM MgCl2, 5 mM HEPES-Na, 20 mM glucose, pH 7.3, 340 mOsm). […] Baseline fluorescence (F0) was recorded for 5 s, after which 7 µL VOC buffer (140 mM NaCl, 5 mM KCl, 2 mM CaCl2, 1 mM MgCl2, 5 mM HEPES-Na, 31 mM glucose, 0.1% DMSO, pH 7.3, 340 mOsm) was injected into each well in one row and the fluorescence response was recorded for an additional 30 s, at a rate of one read/sec. VOC solutions (VOC buffer with 4× concentration of the final measured VOC concentration, 9 µL/well was injected) were measured on the same wells in a second round with the same protocol. Each individual concentration of a specific VOC sample was recorded in three wells for the same cell line on the same microplate. The raw data were exported in xls file format, F0 and FMAX values, and the fluorescence intensity changes (∆F) were calculated in Excel (Microsoft) (Supplementary file Data summary.xlsx) using the following equation: ΔF=FMAX-F0/F0 (see also Fig. 1C). On each plate, we recorded the response of each cell line to 50 µM VUAA1. The average of these ∆F values of each cell line were used to calculate the VUAA1-normalized values for the rest of the plate, by dividing VOC response ∆F values by the average VUAA1 response ∆F value of the corresponding OR cell line. Each VOC-OR combination was measured three times as tec The recorded FMAX, F0, ∆F, VUAA1-normalized ∆F values, as well as the OR name, the name of the tested sample, and the final concentration for each well were copied into supplementary file Data summary.xlsx, that was used to summarize all the plates recorded. Here, the averages of the measurements were calculated for each receptor-VOC-concentration combination. […] Each VOC was measured at 1, 10, and 100 µM final concentration on each receptor. VUAA1-normalized response was calculated as described in methods.

The target of a further assay is OR85b receptor. The conditions noted are these: cited from earlier work.
Assay [1] has as its system OR13a. The settings on record: insect cell line stably expressing OR13a; read-out: EC50 of concentration-dependent Ca2+ signals; cited from earlier work.
The test system of assay [2] is OR13a. The conditions noted are these: Bactrocera dorsalis OR13a in HEK293 cells; read-out: EC50 in fluorescent measurements; cited from earlier work.

Where two headings read alike, the source gives them in different places.

Turning to `C=C(C)[C@H]1CC=C(C)CC1` [(R)-(+)-limonene], at Drosophila OR98a, the activity at 1 µM is 0%, the activity at 10 µM was found to be 0% and the activity at 100 µM came to 0%.

For `CCCCCC(C)=O` [2-heptanone], the EC50 is 70 ± 20 µM at OR85b receptor (OR85b in Xenopus oocytes, Nichols and Luetje, read-out: EC50); 45.6 µM at OR85b receptor (OR85b, Misawa et al., read-out: average EC50).

On to `C=C1CC[C@@]23C[C@@H]1C(C)(C)[C@@H]2CC[C@H]3C` [(+)-beta-cedrene], for which, at Drosophila OR98a, the activity at 1 µM was determined as 8.55%, the activity at 10 µM was determined as 5.99% and the activity at 100 µM worked out at 6.08%.

With `CC1=CCC[C@@]2(C)[C@@H]3CC[C@]12CC3(C)C` [(−)-α-neoclovene], the activity at 1 µM at Drosophila OR98a turned out to be 14.8%.

Regarding `C=C(C)C1CCC2(C)OC2C1` (single isomer, unassigned; (+)) [(+)-limonene oxide], on Drosophila OR98a, the activity at 1 µM amounted to 0%, the activity at 10 µM came out at 0% and the activity at 100 µM came out at 0%.

As to `C=C1[C@H]2CC[C@@H]3[C@H]2C(C)(C)CCC[C@]13C` [(+)-longifolene], on Drosophila OR98a, the activity at 1 µM worked out at 0%, the activity at 10 µM amounted to 12.6% and the activity at 100 µM was 0%.

On to `C=CC(O)CCCCC` (centres unmarked) [1-octen-3-ol], for which the EC50 is 4.33 µM in the assay with OR13a [1] and 11.3 µM in the assay on OR13a [2].
